# Source: article PMC6017000, “Distribution Assessments of Coumarins from Angelicae Pubescentis Radix in Rat Cerebrospinal Fluid and Brain by Liquid Chromatography Tandem Mass Spectrometry Analysis” (Molecules : A Journal of Synthetic Chemistry and Natural …, 2018)
# Legend:
# [1] = Rat CSF distribution after oral administration of APRE (UPLC-MS/MS); settings: for AUC(0-inf) / AUC(0-t) / Cmax / Tmax / half-life: CSF, po, 4 g/kg; for MRM response in CSF: rat CSF after oral APRE
# Procedure: Aliquots of 50 μL CSF samples with IS (10 μL, 200 ng/mL) were extracted with 600 μL ethyl acetate.
# The UPLC-MS/MS system consisted of a Shimadzu Nexera UPLC instrument connected to a Shimadzu LCMS-8050 mass spectrometer via the electrospray ionization interface (Shimadzu Corp., Kyoto, Japan). Samples were separated on an ACQUITY UPLC BEH RP18 column (2.1 × 100 mm, 1.7 µm, Waters, Milford, MA, USA) equipped with a BEH RP18 guard column (2.1 × 5 mm, 1.7 µm, Waters, Milford, MA, USA). The column temperature was 30 °C, and the flow rate was 0.4 mL/min. The sample injection volume was 5 µL. The mobile phases consisted of 0.1% (v/v) formic acid in water (A) and ACN (B). […] The precursor ion, product ion, Q1, Q3, CE and DT were optimized.
# (§1) The time schedule included 9 time-points, and six rats were sampled at each time-point. The rats were fasted overnight with free access to water before the experiment. APRE was suspended with the normal saline and orally administered to the rats at a single dose of 4 g/kg. The animals had free access to water during the experiment.
# Rats were anesthetized by an intraperitoneal dose of chloral hydrate (350 mg/kg) at 0.25, 0.5, 1, 1.5, 2, 4, 6, 8, 12 h after oral administration of APRE. A dorsal midline cutaneous incision was made, and the muscle at the craniocervical junction was bluntly dissected to expose the atlanto-occipital membrane. The cisterna magna was punctured with a thin syringe needle, and a microinjector connected with the needle was used to collect the interior CSF carefully [27]. Clear CSF was transferred to a clean microtube and frozen at −80 °C until further use. Blood contaminated samples were excluded.
# (§2) Results were expressed as the mean ± standard deviation (SD). The UPLC-MS/MS data were processed with Labsolutions 5.65 software (Shimadzu Corp., Kyoto, Japan). The pharmacokinetic parameters were calculated with the Drug and Statistics 2.0 software (Mathematical Pharmacology Professional Committee of China, Shanghai, China).
# [2] = Stability of QC samples in aCSF (freeze-thaw, room temperature); assay type: physicochemical; settings: percentage remaining, n = 5; for Stability room temperature: room temperature 24 h; for Stability Freeze-thaw: three freeze-thaw cycles
# [3] = Rat brain distribution after oral administration of APRE (UPLC-MS/MS); settings: for AUC0→t / AUC0→∞ / CLz/F / Vz/F: rat brain, oral APRE 4 g/kg, mean ± SD, n = 6; for Tmax / half-life: brain; for Tmax / half-life / Kp: po, 4 g/kg; for Kp: brain/plasma
# Procedure: Each weighed brain sample was homogenized with a 2-fold volume of normal saline solution. IS solution (10 μL, 200 ng/mL) was added to 300 μL of the homogenate. The mixture was then extracted with a 3-fold volume of ethyl acetate. The mixture was vortexed for 1 min and centrifuged at 16,000× g for 10 min. The supernatant was transferred out and dried under a gentle constant flow of nitrogen. The residue was then dissolved with 100 μL of MeOH and ultrasonically (power 250 W, frequency 40 KHz) extracted for 10 min. After centrifugation at 16,000× g for 10 min, the supernatant was drawn out into a clean vial, and 5 μL of each were injected into the UPLC–MS/MS system for analysis.
# The UPLC-MS/MS system consisted of a Shimadzu Nexera UPLC instrument connected to a Shimadzu LCMS-8050 mass spectrometer via the electrospray ionization interface (Shimadzu Corp., Kyoto, Japan). Samples were separated on an ACQUITY UPLC BEH RP18 column (2.1 × 100 mm, 1.7 µm, Waters, Milford, MA, USA) equipped with a BEH RP18 guard column (2.1 × 5 mm, 1.7 µm, Waters, Milford, MA, USA). The column temperature was 30 °C, and the flow rate was 0.4 mL/min. The sample injection volume was 5 µL. The mobile phases consisted of 0.1% (v/v) formic acid in water (A) and ACN (B). The LC gradient elution program and mass working parameters were the same as our previous report [6]. […] The precursor ion, product ion, Q1, Q3, CE and DT were optimized.
# as §1
# Cardiac perfusion was carried out quickly with physiological saline after CSF collection at each time-point. The rat brains were separated, weighed and then stored at −80 °C until treatment.
# as §2
# [4] = Stability of QC samples in rat brain homogenate (freeze-thaw, room temperature); assay type: physicochemical; settings: percentage remaining, n = 5; for Stability room temperature: room temperature 24 h; for Stability Freeze-thaw: three freeze-thaw cycles
Compound,AUC(0-inf) ([1]; rat) [ng·h/mL],AUC(0-t) ([1]; rat) [ng·h/mL],Cmax ([1]; rat) [ng/mL],Tmax ([1]; rat) [h],half-life ([1]; rat) [h],Stability room temperature ([2]; aCSF QC 40 ng/mL) [%],Stability Freeze-thaw ([2]; aCSF QC 40 ng/mL) [%],Stability room temperature ([2]; aCSF QC 80 ng/mL) [%],Stability Freeze-thaw ([2]; aCSF QC 80 ng/mL) [%],AUC0→t [3] [µg·h/kg],AUC0→∞ [3] [µg·h/kg],CLz/F [3] [g/h/kg],Vz/F [3] [g/kg],Tmax ([3]; rat) [h],half-life ([3]; rat) [h],Stability room temperature ([4]; rat brain QC 80 ng/mL) [%],Stability Freeze-thaw ([4]; rat brain QC 80 ng/mL) [%],Stability room temperature ([4]; rat brain QC 160 ng/mL) [%],Stability Freeze-thaw ([4]; rat brain QC 160 ng/mL) [%],MRM response in CSF [1],further results
"O=c1ccc2cc3ccoc3cc2o1 [Compound 1, psoralen]",51.3 ± 17.5,20.4 ± 6.16,4.49 ± 1.05,4.67 ± 1.63,3.52 ± 2.04,98.36±3.57,96.98±5.79,94.12±6.94,86.27±13.45,351.63 ± 65.06,371.95 ± 69.76,2.88 ± 0.58,8.86 ± 3.08,0.33 ± 0.13,2.15 ± 0.67,99.53±12.87,96.22±7.77,96.99±3.28,96.30±8.22,,"total amount percentage of CSF/plasma ([1]; (0.48 × AUC0→∞/CSF)/(16 × AUC0→∞/plasma), rat, oral APRE): greater than 1%; Stability room temperature ([2]; aCSF QC 10 ng/mL): 97.19±5.40%; Stability Freeze-thaw ([2]; aCSF QC 10 ng/mL): 96.14±6.21%; Kp ([3]; rat): 0.56; Stability room temperature ([4]; rat brain QC 10 ng/mL): 101.36±7.46%; Stability Freeze-thaw ([4]; rat brain QC 10 ng/mL): 97.11±8.58%"
"COc1c2ccoc2cc2oc(=O)ccc12 [Compound 3, bergapten]",41.3 ± 5.77,27.1 ± 2.26,3.95 ± 0.24,1.46 ± 0.84,6.72 ± 1.95,94.61±4.23,93.24±6.30,99.54±7.55,97.23±5.17,418.20 ± 93.60,449.85 ± 97.52,3.22 ± 0.85,10.76 ± 4.73,1.21 ± 1.53,2.34 ± 1.04,86.01±3.16,85.30±8.42,86.84±6.63,90.70±9.46,,Stability room temperature ([2]; aCSF QC 5 ng/mL): 106.76±8.57%; Stability Freeze-thaw ([2]; aCSF QC 5 ng/mL): 92.34±7.48%; Kp ([3]; rat): 0.08; Stability room temperature ([4]; rat brain QC 5 ng/mL): 88.02±2.73%; Stability Freeze-thaw ([4]; rat brain QC 5 ng/mL): 89.97±6.29%
O=c1ccc2c(O)c3ccoc3cc2o1 [bergaptol],,,,,,,,,,,,,,,,,,,,under LLOQ,MRM response in brain ([3]; rat brain after oral APRE): under LLOQ

# Second part, led by results:
AUC(0-inf) ([1]; rat) [ng·h/mL],AUC(0-t) ([1]; rat) [ng·h/mL],Cmax ([1]; rat) [ng/mL],Tmax ([1]; rat) [h],half-life ([1]; rat) [h],Stability room temperature ([2]; aCSF QC 40 ng/mL) [%],Stability Freeze-thaw ([2]; aCSF QC 40 ng/mL) [%],Stability room temperature ([2]; aCSF QC 80 ng/mL) [%],Stability Freeze-thaw ([2]; aCSF QC 80 ng/mL) [%],AUC0→t [3] [µg·h/kg],AUC0→∞ [3] [µg·h/kg],CLz/F [3] [g/h/kg],Vz/F [3] [g/kg],Tmax ([3]; rat) [h],half-life ([3]; rat) [h],Stability room temperature ([4]; rat brain QC 80 ng/mL) [%],Stability Freeze-thaw ([4]; rat brain QC 80 ng/mL) [%],Stability room temperature ([4]; rat brain QC 160 ng/mL) [%],Stability Freeze-thaw ([4]; rat brain QC 160 ng/mL) [%],MRM response in CSF [1],Compound,further results
,,,,,,,,,,,,,,,92.73±3.53,94.79±6.28,91.16±4.37,90.93±4.84,under LLOQ,"C/C=C(/C)C(=O)OC(C)(C)[C@@H]1Cc2c(ccc3ccc(=O)oc23)O1 [Compound 7, columbianadin]","time after oral administration within which detected in brain ([3]; rat brain after oral APRE, MRM response under LLOQ at following time points): ≤ 4 h; Stability room temperature ([4]; rat brain QC 10 ng/mL): 96.82±4.84%; Stability Freeze-thaw ([4]; rat brain QC 10 ng/mL): 101.64±6.63%"
73.6 ± 11.8,54 ± 8.2,7.47 ± 1.69,2 ± 1.14,6.32 ± 1.95,95.09±3.26,94.73±7.34,103.37±5.33,95.96±5.37,313.39 ± 59.25,397.36 ± 66.83,2.04 ± 0.34,14.45 ± 3.95,0.96 ± 0.86,4.91 ± 0.91,96.02±6.30,94.94±10.27,97.99±6.44,102.42±7.10,,"CC(C)(O)[C@H](O)COc1c2ccoc2cc2oc(=O)ccc12 [Compound 8, oxypeucedanin hydrate]","Stability room temperature ([2]; aCSF QC 5 ng/mL): 96.96±3.22%; Stability Freeze-thaw ([2]; aCSF QC 5 ng/mL): 97.57±5.59%; log BBexpt. ([3]; log (AUC0→∞/brain/AUC0→∞/plasma), rat, oral APRE): −0.16; Stability room temperature ([4]; rat brain QC 5 ng/mL): 97.72±9.35%; Stability Freeze-thaw ([4]; rat brain QC 5 ng/mL): 96.57±11.87%"
,,,,,,,,,,,,,,,,,,,under LLOQ,O=c1ccc2ccc(O)cc2o1 [umbelliferone],MRM response in brain ([3]; rat brain after oral APRE): under LLOQ
